Test results as given in BindingDB's records for doi:10.1007/bf02246453 (University of Turku, 1996).
Counter-ions that a name gives are not always drawn.

Assays:
[1] = biological target: T1, 5-hydroxytryptamine receptor 2C (Rattus norvegicus, UniProt P08909)
T1 sequence (P08909 whole entry): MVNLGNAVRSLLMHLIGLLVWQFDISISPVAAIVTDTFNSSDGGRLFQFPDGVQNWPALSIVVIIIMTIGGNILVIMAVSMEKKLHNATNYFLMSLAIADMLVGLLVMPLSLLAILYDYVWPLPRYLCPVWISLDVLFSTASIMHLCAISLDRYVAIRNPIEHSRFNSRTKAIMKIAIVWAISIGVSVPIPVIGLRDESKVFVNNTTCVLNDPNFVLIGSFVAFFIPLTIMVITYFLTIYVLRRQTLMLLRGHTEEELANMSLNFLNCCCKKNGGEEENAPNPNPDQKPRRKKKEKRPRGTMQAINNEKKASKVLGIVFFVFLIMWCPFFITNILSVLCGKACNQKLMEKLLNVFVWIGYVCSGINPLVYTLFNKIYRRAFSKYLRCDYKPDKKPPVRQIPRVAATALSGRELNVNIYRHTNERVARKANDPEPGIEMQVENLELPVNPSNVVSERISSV

[2] = biological target: 5-hydroxytryptamine receptor 2A (Rattus norvegicus, UniProt P14842)
5-hydroxytryptamine receptor 2A, sequence (P14842 whole entry): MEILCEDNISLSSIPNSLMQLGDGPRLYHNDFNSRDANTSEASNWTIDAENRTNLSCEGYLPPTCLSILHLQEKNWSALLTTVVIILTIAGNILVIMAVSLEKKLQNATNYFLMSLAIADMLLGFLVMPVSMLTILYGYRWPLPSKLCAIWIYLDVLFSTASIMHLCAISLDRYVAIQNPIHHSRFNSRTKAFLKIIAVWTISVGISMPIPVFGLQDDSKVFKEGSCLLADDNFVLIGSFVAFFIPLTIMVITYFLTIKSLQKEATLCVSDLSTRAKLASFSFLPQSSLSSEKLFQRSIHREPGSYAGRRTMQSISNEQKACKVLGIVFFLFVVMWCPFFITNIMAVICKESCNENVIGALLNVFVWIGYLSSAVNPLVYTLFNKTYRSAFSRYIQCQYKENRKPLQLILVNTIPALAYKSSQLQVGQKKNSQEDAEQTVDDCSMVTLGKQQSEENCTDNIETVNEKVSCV

SMILES	Ki [1] [nM]	Ki [2] [nM]
CN(C)CCCN1c2ccccc2CCc2ccccc21	94	
CN(C)CCC=C1c2ccccc2CCc2ccccc21	4.3	4.3
O=c1n(CCCN2CCN(c3cccc(Cl)c3)CC2)nc2ccccn12 [2-{3-[4-(3-chlorophenyl)piperazin-1-yl]propyl}[1,2,4]triazolo[4,3-a]pyridin-3(2H)-one]	193	
CN(C)CCCn1c2c(c3ccccc31)CCCCCC2 [CAS_5560-72-5]	206	
CN(C)CCCC1(c2ccc(F)cc2)OCc2cc(C#N)ccc21 (stereo unspecified) [CITALOPRAM HYDROBROMIDE]	269	
CNCCCN1c2ccccc2CCc2ccccc21 [Desmethylimipramine]	244	

Second part, led by results:

Ki [1] [nM]	SMILES	Ki [2] [nM]
157	NCC[C@H](Oc1ccc(C(F)(F)F)cc1)c1ccccc1 [NORFLUOXETINE]	
8.5	CNCCC=C1c2ccccc2CCc2ccccc21 [NORTRIPTYLINE]	
1000	C#CCN(C)CCCOc1ccc(Cl)cc1Cl [US8633208, Clorgyline]	
1000	CN(C)C/C=C(/c1ccc(Br)cc1)c1cccnc1 [cis-[3-(4-Bromo-phenyl)-3-pyridin-3-yl-allyl]-dimethyl-amine;HCl]	
